Test results from US20100016366A1, “Novel Compounds Active as Muscarinic Receptor Antagonists” (priority 2008, published 2010).

Biological target: T1, human muscarinic M3 receptor (Homo sapiens, UniProt P20309)
T1 construct: expressed in transfected cells; host or cells: CHO (CHO-K1) cells
Test: hM3 competition binding assay (3H-NMS, CHO cell membranes)
Settings: CHO cell membranes expressing human M3; 3H-NMS at 5×KD, 24 hr at RT; IC50 corrected by Cheng-Prussoff
Procedure: Binding Affinity Assessment at the Human Recombinant M3 Muscarinic Receptor
Cell Pellets from CHO (Chinese Hamster Ovary) cells recombinantly expressing the human muscarinic M3 receptor were homogenised in 20 mM HEPES (pH7.4) and centrifuged at 48000×g for 20 min at 4° C. The pellet was re-suspended in buffer and the homogenisation and centrifugation steps repeated. The resulting pellet was re-suspended in 1 ml buffer per 1 ml original packed cell volume and the homogenisation step repeated. Protein estimation was carried out on the suspension and 1 ml aliquots of ˜1 mg/ml frozen at −80° C.
hM3 Competition Binding Assay Protocol
Membranes (5 µg/well) were incubated with ^3H-NMS (at a concentration 5×KD) plus/minus test compound for 24 hr at RT (room temperature) in a 1 ml polystyrene 96-well deep well block. The final assay volume was 200 µl, comprising of: 20 µl plus/minus test compound; 20 µl ^3H-NMS (Perkin Elmer NEN 636) and 160 µl membrane solution. Total Binding was defined with 0.1% DMSO; Non-Specific Binding was defined with 1 µM Atropine. Assay buffer was 20 mM Hepes (pH 7.4).
Once all assay components were added, plates were covered and incubated at room temperature for 24 hrs with shaking. The assay was terminated by rapidly filtering through GF/B Unifilter plates pre-soaked with 0.5% polyethylenimine, using a Packard filtermate harvester, the filter plate was then washed with 3×1 ml 4° C. assay buffer. The filter plates were dried at 45° C. for 1 hour. The bottoms of the filter plates were sealed and 50 µl/well of Microscint ‘0’ added, the top of the plates were sealed with a Topseal. Following 90 mins, the plates were read on an NXT Topcount (1 minute read time per well).
The resulting data was expressed as a percentage of the specific binding (Specific binding=Total binding−Non-Specific Binding). % specific binding versus test compound concentration was plotted to determine an IC50 from a sigmoid curve using an in-house data analysis programme. IC50 values corrected to Ki values by applying the Cheng-Prussoff equation: […]
where IC50 is the concentration of unlabelled drug which inhibits by 50% the specific radioligand binding. [L] is the free radioligand concentrations and KD and Ki are the equilibrium dissociation constants of the radioligand and unlabelled drug respectively.

T1 sequence (P20309 whole entry): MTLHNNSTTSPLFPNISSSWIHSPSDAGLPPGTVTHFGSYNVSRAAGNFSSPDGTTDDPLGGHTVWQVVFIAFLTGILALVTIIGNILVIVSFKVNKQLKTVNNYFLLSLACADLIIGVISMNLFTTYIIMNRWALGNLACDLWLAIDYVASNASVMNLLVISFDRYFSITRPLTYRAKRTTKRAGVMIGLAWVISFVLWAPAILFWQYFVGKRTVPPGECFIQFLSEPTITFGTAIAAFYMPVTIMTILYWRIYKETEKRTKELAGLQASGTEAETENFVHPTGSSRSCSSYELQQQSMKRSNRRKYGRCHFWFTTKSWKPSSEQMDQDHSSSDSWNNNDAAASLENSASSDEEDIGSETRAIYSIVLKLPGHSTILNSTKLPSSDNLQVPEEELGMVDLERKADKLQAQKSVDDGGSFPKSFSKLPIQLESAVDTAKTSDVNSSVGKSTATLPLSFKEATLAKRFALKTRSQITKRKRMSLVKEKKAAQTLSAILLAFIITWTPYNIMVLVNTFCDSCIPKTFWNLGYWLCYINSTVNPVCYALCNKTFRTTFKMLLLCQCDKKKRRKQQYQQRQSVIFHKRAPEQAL

`O=C(Nc1ccccc1-c1ccccc1)OC1CCN(CCCCCCCCCN(Cc2cccc(O)c2Cl)Cc2cccc(O)c2Cl)CC1` [Example 39, Biphenyl-2-yl-carbamic acid 1-{9-[bis-(2-chloro-3-hydroxy-benzyl)-amino]-nonyl}-piperidin-4-yl ester] was tested, and the Ki was 1.13 nM.

Work on `CN(CCCCCCCCCN1CCC(OC(=O)Nc2ccccc2-c2ccccc2)CC1)Cc1cccc(F)c1O` [Example 40, Biphenyl-2-yl-carbamic acid 1-{9-[(3-fluoro-2-hydroxy-benzyl)-methyl-amino]-nonyl}-piperidin-4-yl ester] yielded a Ki of 0.638 nM.

`CN(CCCCCCCCCN1CCC(OC(=O)Nc2ccccc2-c2ccccc2)CC1)Cc1cc(Cl)c(Cl)cc1O` [Example 41, Biphenyl-2-yl-carbamic acid 1-{9-[(4,5-dichloro-2-hydroxy-benzyl)-methyl-amino]-nonyl}-piperidin-4-yl ester] was tested, and the Ki was 1.3 nM.

Compound `CN(CCCCCCCCCN1CCC(OC(=O)Nc2ccccc2-c2ccccc2)CC1)Cc1ccc(F)c(O)c1` [Example 42, Biphenyl-2-yl-carbamic acid 1-{9-[(4-fluoro-3-hydroxy-benzyl)-methyl-amino]-nonyl}-piperidin-4-yl ester] has a Ki of 0.233 nM.

With `CN(CCCCCCCCCN1CCC(OC(=O)Nc2ccccc2-c2ccccc2)CC1)Cc1cc(F)c(Cl)cc1O` [Example 43, Biphenyl-2-yl-carbamic acid 1-{9-[(4-chloro-5-fluoro-2-hydroxy-benzyl)-methyl-amino]-nonyl}-piperidin-4-yl ester] the Ki was 0.295 nM.

Compound `CN(CCCCCCCCCN1CCC(OC(=O)Nc2ccccc2-c2ccccc2)CC1)Cc1ccc(O)c(Cl)c1` [Example 44, Biphenyl-2-yl-carbamic acid 1-{9-[(3-chloro-4-hydroxy-benzyl)-methyl-amino]-nonyl}-piperidin-4-yl ester] has a Ki of 0.212 nM.

`CN(CCCCCCCCCN1CCC(OC(=O)Nc2ccccc2-c2ccccc2)CC1)Cc1ccc(O)c(F)c1` [Example 45, Biphenyl-2-yl-carbamic acid 1-{9-[(3-fluoro-4-hydroxy-benzyl)-methyl-amino]-nonyl}-piperidin-4-yl ester] was tested, and the Ki was 0.212 nM.

Compound `CN(CCCCCCCCCN1CCC(OC(=O)Nc2ccccc2-c2ccccc2)CC1)Cc1cc(Cl)ccc1O` [Example 46, Biphenyl-2-yl-carbamic acid 1-{9-[(5-chloro-2-hydroxy-benzyl)-methyl-amino]-nonyl}-piperidin-4-yl ester] has a Ki of 0.755 nM.

With `CN(CCCCCCCCCN1CCC(OC(=O)Nc2ccccc2-c2ccccc2)CC1)Cc1cc(F)ccc1O` [Example 47, Biphenyl-2-yl-carbamic acid 1-{9-[(5-fluoro-2-hydroxy-benzyl)-methyl-amino]-nonyl}-piperidin-4-yl ester] the Ki was 0.529 nM.

With `CN(CCCCCCCCCN1CCC(OC(=O)Nc2ccccc2-c2ccccc2)CC1)Cc1cccc(O)c1Cl` [Example 48, Biphenyl-2-yl-carbamic acid 1-{9-[(2-chloro-3-hydroxy-benzyl)-methyl-amino]-nonyl}-piperidin-4-yl ester] the Ki was 0.182 nM.

Compound `CN(CCCCCCCCCN1CCC(OC(=O)Nc2ccccc2-c2ccccc2)CC1)Cc1cc(F)cc(Cl)c1O` [Example 49, Biphenyl-2-yl-carbamic acid 1-{9-[(3-chloro-5-fluoro-2-hydroxy-benzyl)-methyl-amino]-nonyl}-piperidin-4-yl ester] has a Ki of 0.285 nM.

Work on `CN(CCCCCCCCCN1CCC(OC(=O)Nc2ccccc2-c2ccccc2)CC1)Cc1cc(Cl)c(O)c(Cl)c1` [Example 50, Biphenyl-2-yl-carbamic acid 1-{9-[(3,5-dichloro-4-hydroxy-benzyl)-methyl-amino]-nonyl}-piperidin-4-yl ester] yielded a Ki of 0.22 nM.

`CN(CCCCCCCCCN1CCC(OC(=O)Nc2ccccc2-c2ccccc2)CC1)Cc1cccc(O)c1F` [Example 51, Biphenyl-2-yl-carbamic acid 1-{9-[(2-fluoro-3-hydroxy-benzyl)-methyl-amino]-nonyl}-piperidin-4-yl ester] was tested, and the Ki was 0.231 nM.

For `CN(CCCCCCCCCN1CCC(OC(=O)Nc2ccccc2-c2ccccc2)CC1)Cc1cc(Cl)cc(Cl)c1O` [Example 52, Biphenyl-2-yl-carbamic acid 1-{9-[(3,5-dichloro-2-hydroxy-benzyl)-methyl-amino]-nonyl}-piperidin-4-yl ester], the Ki was 0.637 nM.

Work on `CN(CCCCCCCCCN1CCC(OC(=O)Nc2ccccc2-c2ccccc2)CC1)Cc1cc(F)c(O)c(F)c1` [Example 53, Biphenyl-2-yl-carbamic acid 1-{9-[(3,5-difluoro-4-hydroxy-benzyl)-methyl-amino]-nonyl}-piperidin-4-yl ester] yielded a Ki of 0.345 nM.

Compound `CN(CCCCCCCCCN1CCC(OC(=O)Nc2ccccc2-c2ccccc2)CC1)Cc1ccc(Cl)c(O)c1Cl` [Example 54, Biphenyl-2-yl-carbamic acid 1-{9-[(2,4-dichloro-3-hydroxy-benzyl)-methyl-amino]-nonyl}-piperidin-4-yl ester] has a Ki of 0.233 nM.

For `CN(CCCCCCCCCN1CCC(OC(=O)Nc2ccccc2-c2ccccc2)CC1)Cc1cc(F)cc(F)c1O` [Example 55, Biphenyl-2-yl-carbamic acid 1-{9-[(3,5-difluoro-2-hydroxy-benzyl)-methyl-amino]-nonyl}-piperidin-4-yl ester], the Ki was 0.417 nM.

For `CN(CCCCCCCCCN1CCC(OC(=O)Nc2ccccc2-c2ccccc2)CC1)C(=O)c1cc(Cl)cc(Cl)c1O` [Example 56, Biphenyl-2-yl-carbamic acid 1-{9-[(3,5-dichloro-2-hydroxy-benzoyl)-methyl-amino]-nonyl}-piperidin-4-yl ester], the Ki was 11.3 nM.

With `CN(CCCCCCCCCN1CCC(OC(=O)Nc2ccccc2-c2ccccc2)CC1)C(=O)c1cccc(Cl)c1O` [Example 57, Biphenyl-2-yl-carbamic acid 1-{9-[(3-chloro-2-hydroxy-benzoyl)-methyl-amino]-nonyl}-piperidin-4-yl ester] the Ki was 0.87 nM.

For `CN(CCCCCCCCCN1CCC(OC(=O)Nc2ccccc2-c2ccccc2)CC1)C(=O)c1ccc(F)c(F)c1O` [Example 58, Biphenyl-2-yl-carbamic acid 1-{9-[(3,4-difluoro-2-hydroxy-benzoyl)-methyl-amino]-nonyl}-piperidin-4-yl ester], the Ki was 1.83 nM.

Compound `CN(CCCCCCCCCN1CCC(OC(=O)Nc2ccccc2-c2ccccc2)CC1)C(=O)c1cccc(F)c1O` [Example 59, Biphenyl-2-yl-carbamic acid 1-{9-[(3-fluoro-2-hydroxy-benzoyl)-methyl-amino]-nonyl}-piperidin-4-yl ester] has a Ki of 1.27 nM.

In the case of `CN(CCCCCCCCCN1CCC(OC(=O)Nc2ccccc2-c2ccccc2)CC1)C(=O)c1ccc(Cl)cc1O` [Example 60, Biphenyl-2-yl-carbamic acid 1-{9-[(4-chloro-2-hydroxy-benzoyl)-methyl-amino]-nonyl}-piperidin-4-yl ester], the Ki is reported as 3.61 nM.

Work on `CN(CCCCCCCCCN1CCC(OC(=O)Nc2ccccc2-c2ccccc2)CC1)C(=O)c1ccc(F)cc1O` [Example 61, Biphenyl-2-yl-carbamic acid 1-{9-[(4-fluoro-2-hydroxy-benzoyl)-methyl-amino]-nonyl}-piperidin-4-yl ester] yielded a Ki of 0.778 nM.

`CN(CCCCCCCCCN1CCC(OC(=O)Nc2ccccc2-c2ccccc2)CC1)C(=O)c1ccc(Cl)c(O)c1` [Example 62, Biphenyl-2-yl-carbamic acid 1-{9-[(4-chloro-3-hydroxy-benzoyl)-methyl-amino]-nonyl}-piperidin-4-yl ester] showed a Ki of 1.21 nM.
